From patent US9302999B2, “Substituted triazoles as herbicides” (E. I. DU PONT DE NEMOURS AND COMPANY, priority 2012, dated 2016)

How the values were obtained:
Type in all cases: in vivo
[1] = tested on: cocklebur (common cocklebur, Xanthium strumarium); assay: Test C pre-/postemergence: cocklebur
Procedure, shortened: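 Preemergence on seeds in loam/sand, postemergence on 2–18 cm (1–4-leaf) plants in peat-based medium; compounds in non-phytotoxic solvent with surfactant. After 13–15 days in greenhouse, visual rating versus controls, 0 (no effect) to 100 (complete control).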

[2] = tested on: canarygrass (Phalaris minor); assay: Test D pre-/postemergence: canarygrass
Source text: (§1) Seeds of plant species selected from bluegrass (annual bluegrass, Poa annua), blackgrass (Alopecurus myosuroides), canarygrass (Phalaris minor), chickweed (common chickweed, Stellaria media), galium (catchweed bedstraw, Galium aparine), bromegrass, downy (downy bromegrass, Bromus tectorum), field poppy (Papaver rhoeas), field violet (Viola arvensis), foxtail, green (green foxtail, Setaria viridis), deadnettle (henbit deadnettle, Lamium amplexicaule), ryegrass, Italian (Italian ryegrass, Lolium multiflorum), kochia (Kochia scoparia), lambsquarters (Chenopodium album), oilseed rape (Brassica napus), pigweed (Amaranthus retroflexus), Russian thistle (Salsola iberica), chamomile (scentless chamomile, Matricaria inodora), speedwell (bird's-eye speedwell, Veronica persica), barley, spring (spring barley, Hordeum vulgare), wheat, spring (spring wheat, Triticum aestivum), buckwheat, wild (wild buckwheat, Polygonum convolvulus), mustard, wild (wild mustard, Sinapis arvensis), oat, wild (wild oat, Avena fatua), radish, wild (wild radish, Raphanus raphanistrum), windgrass (Apera spica-venti), barley, winter (winter barley, Hordeum vulgare), and wheat, winter (winter wheat, Triticum aestivum) were planted into a silt loam soil and treated preemergence with test chemicals formulated in a non-phytotoxic solvent mixture which included a surfactant. At the same time, these same crop and weed species were planted in pots containing the planting medium comprising spaghnum peat moss, vermiculite, wetting agent and starter nutrients and treated with postemergence applications of the test chemicals formulated in the same manner. Plants ranged in height from 2 to 18 cm (1- to 4-leaf stage).
(§2) Treated plants and controls were maintained in a controlled growth environment for 14 to 21 days after which time all species were compared to controls and visually evaluated. Plant response ratings, summarized in Table D, are based on a scale of 0 to 100 where 0 is no effect and 100 is complete control. A dash (-) response means no test result.

[3] = tested on: blackgrass (Alopecurus myosuroides); assay: Test D pre-/postemergence: blackgrass
Source text: as §1, §2

[4] = tested on: buckwheat, wild (wild buckwheat, Polygonum convolvulus); assay: Test D pre-/postemergence: buckwheat, wild
Source text: as §1, §2

[5] = tested on: chamomile (scentless chamomile, Matricaria inodora); assay: Test D pre-/postemergence: chamomile
Source text: as §1, §2

[6] = tested on: surinam grass (Brachiaria decumbens); assay: Test C pre-/postemergence: surinam grass
Source text: Seeds of plant species selected from blackgrass (Alopecurus myosuroides), bromegrass, downy (downy bromegrass, Bromus tectorum), foxtail, green (green foxtail, Setaria viridis), ryegrass, Italian (Italian ryegrass, Lolium multiflorum), winter wheat (Triticum aestivum), wild oat (Avena fatua), galium (catchweed bedstraw, Galium aparine), bermudagrass (Cynodon dactylon), surinam grass (Brachiaria decumbens), cocklebur (common cocklebur, Xanthium strumarium), corn (Zea mays), large crabgrass (Digitaria sanguinalis), woolly cupgrass (Eriochloa villosa), foxtail, giant (giant foxtail, Setaria faberii), goosegrass (Eleusine indica), johnsongrass (Sorghum halepense), kochia (Kochia scoparia), lambsquarters (Chenopodium album), morningglory (Ipomoea coccinea), nightshade (eastern black nightshade, Solanum ptycanthum), nutsedge, yellow (yellow nutsedge, Cyperus esculentus), pigweed (Amaranthus retroflexus), ragweed (common ragweed, Ambrosia elation), soybean (Glycine max), common (oilseed) sunflower (Helianthus annuus), Russian thistle (Salsola kali) and velvetleaf (Abutilon theophrasti) were planted into a blend of loam soil and sand and treated preemergence with test chemicals formulated in a non-phytotoxic solvent mixture which included a surfactant.
At the same time, plants selected from these crop and weed species and also barley (winter barley, Hordeum vulgare), canarygrass (Phalaris minor), chickweed (common chickweed, Stellaria media) windgrass (Apera spica-venti) and deadnettle (henbit deadnettle, Lamium amplexicaule) were planted in pots containing Redi-Earth® planting medium (Scotts Company, 14111 Scottslawn Road, Marysville, Ohio 43041) comprising spaghnum peat moss, vermiculite, wetting agent and starter nutrients and treated with postemergence applications of test chemicals formulated in the same manner. Plants ranged in height from 2 to 18 cm (1- to 4-leaf stage) for postemergence treatments.
as §2, with “greenhouse” for “controlled growth environment”, “13” for “14”, “15 days,” for “21 days”, “C,” for “D,”

[7] = tested on: oat, wild (wild oat, Avena fatua); assay: Test D pre-/postemergence: oat, wild
Source text: as §1, §2

[8] = Preemergence, 31 g ai/ha, scale of 0 to 100, 0 is no effect, 100 is complete control
[9] = Postemergence, 31 g ai/ha, scale 0 to 100 (0 no effect, 100 complete control)
[10] = Postemergence, 62 g ai/ha, scale 0 to 100 (0 no effect, 100 complete control)
[11] = Postemergence, 125 g ai/ha, scale 0 to 100, 0 no effect, 100 complete control
[12] = Postemergence, 16 g ai/ha, scale 0 to 100
[13] = Preemergence, 16 g ai/ha, scale 0 to 100 (0 no effect, 100 complete control)
[14] = Preemergence, 31 g ai/ha, scale 0 to 100 (0 no effect, 100 complete control)
[15] = Preemergence, 62 g ai/ha, scale 0 to 100
[16] = Preemergence, 125 g ai/ha, scale 0 to 100
[17] = Preemergence, 62 g ai/ha, scale of 0 to 100, 0 is no effect, 100 is complete control
[18] = Preemergence, 125 g ai/ha, scale 0 to 100, 0 no effect, 100 complete control
[19] = Preemergence, 250 g ai/ha, scale 0 to 100, 0 no effect, 100 complete control
[20] = Postemergence, 250 g ai/ha, scale 0 to 100
[21] = Postemergence, 8 g ai/ha, scale 0 to 100
[22] = Postemergence, 250 g ai/ha, scale 0 to 100 (0 no effect, 100 complete control)
[23] = Preemergence, 250 g ai/ha, scale 0 to 100

SMILES: Cc1nn(-c2ccc(F)c(C(F)(F)F)c2)nc1Oc1ccnc(C(F)(F)F)c1 [Compound 147]
- Plant response rating, Cocklebur [1, 8]: 35
- Plant response rating: Canarygrass [2, 9]: 35
- Plant response rating: Canarygrass [2, 10]: 55
- Plant response rating: Canarygrass [2, 11]: 80
- Plant response rating, Canarygrass [2, 12]: 15
- Plant response rating, Canarygrass [2, 13]: 5
- Plant response rating, Canarygrass [2, 14]: 35
- Plant response rating, Canarygrass [2, 15]: 100
- Plant response rating, Canarygrass [2, 16]: 100
- Plant response rating: Blackgrass [3, 9]: 25
- Plant response rating: Blackgrass [3, 10]: 30
- Plant response rating: Blackgrass [3, 11]: 60
- Plant response rating, Blackgrass [3, 12]: 15
- Plant response rating, Blackgrass [3, 13]: 0
- Plant response rating, Blackgrass [3, 14]: 0
- Plant response rating, Blackgrass [3, 15]: 30
- Plant response rating, Blackgrass [3, 16]: 40
- Plant response rating: Buckwheat, Wild [4, 9]: 50
- Plant response rating: Buckwheat, Wild [4, 10]: 65
- Plant response rating: Buckwheat, Wild [4, 11]: 70
- Plant response rating, Buckwheat, Wild [4, 12]: 45
- Plant response rating, Buckwheat, Wild [4, 13]: 15
- Plant response rating, Buckwheat, Wild [4, 14]: 10
- Plant response rating, Buckwheat, Wild [4, 15]: 30
- Plant response rating, Buckwheat, Wild [4, 16]: 100
- Plant response rating: Chamomile [5, 9]: 60
- Plant response rating: Chamomile [5, 10]: 75
- Plant response rating: Chamomile [5, 11]: 80
- Plant response rating, Chamomile [5, 12]: 45
- Plant response rating, Chamomile [5, 13]: 25
- Plant response rating, Chamomile [5, 14]: 15
- Plant response rating, Chamomile [5, 15]: 90
- Plant response rating, Chamomile [5, 16]: 95
- Plant response rating, Surinam Grass [6, 8]: 55
- Plant response rating, Surinam Grass [6, 17]: 80
- Plant response rating, Surinam Grass [6, 18]: 95
- Plant response rating, Surinam Grass [6, 19]: 95
- Plant response rating: Oat, Wild [7, 9]: 15
- Plant response rating: Oat, Wild [7, 10]: 30
- Plant response rating: Oat, Wild [7, 11]: 35
- Plant response rating, Oat, Wild [7, 12]: 10
- Plant response rating, Oat, Wild [7, 13]: 5
- Plant response rating, Oat, Wild [7, 14]: 15
- Plant response rating, Oat, Wild [7, 15]: 35
- Plant response rating, Oat, Wild [7, 16]: 70

SMILES: Cc1nn(-c2ccc(F)c(F)c2)nc1Oc1ccnc(C(F)(F)F)c1 [Compound 145]
- Plant response rating, Cocklebur [1, 9]: 10
- Plant response rating, Cocklebur [1, 10]: 15
- Plant response rating, Cocklebur [1, 11]: 65
- Plant response rating, Cocklebur [1, 20]: 65
- Plant response rating, Cocklebur [1, 8]: 0
- Plant response rating, Cocklebur [1, 17]: 0
- Plant response rating, Cocklebur [1, 18]: 10
- Plant response rating: Canarygrass [2, 9]: 35
- Plant response rating: Canarygrass [2, 10]: 35
- Plant response rating: Canarygrass [2, 11]: 60
- Plant response rating, Canarygrass [2, 21]: 20
- Plant response rating, Canarygrass [2, 12]: 30
- Plant response rating: Blackgrass [3, 9]: 20
- Plant response rating: Blackgrass [3, 10]: 25
- Plant response rating: Blackgrass [3, 11]: 30
- Plant response rating, Blackgrass [3, 21]: 5
- Plant response rating, Blackgrass [3, 12]: 20
- Plant response rating: Buckwheat, Wild [4, 9]: 35
- Plant response rating: Buckwheat, Wild [4, 10]: 45
- Plant response rating: Buckwheat, Wild [4, 11]: 85
- Plant response rating, Buckwheat, Wild [4, 21]: 15
- Plant response rating, Buckwheat, Wild [4, 12]: 30
- Plant response rating: Chamomile [5, 9]: 10
- Plant response rating: Chamomile [5, 10]: 10
- Plant response rating: Chamomile [5, 11]: 30
- Plant response rating, Chamomile [5, 21]: 0
- Plant response rating, Chamomile [5, 12]: 0
- Plant response rating, Surinam Grass [6, 9]: 25
- Plant response rating, Surinam Grass [6, 10]: 30
- Plant response rating, Surinam Grass [6, 11]: 60
- Plant response rating, Surinam Grass [6, 20]: 75
- Plant response rating, Surinam Grass [6, 8]: 35
- Plant response rating, Surinam Grass [6, 17]: 55
- Plant response rating, Surinam Grass [6, 18]: 100
- Plant response rating, Surinam Grass [6, 19]: 100
- Plant response rating: Oat, Wild [7, 9]: 20
- Plant response rating: Oat, Wild [7, 10]: 30
- Plant response rating: Oat, Wild [7, 11]: 35
- Plant response rating, Oat, Wild [7, 21]: 10
- Plant response rating, Oat, Wild [7, 12]: 10

SMILES: CCOc1nn(-c2ccc(F)cc2)nc1Cc1ccnc(C(F)F)c1 [Compound 195]
- Plant response rating, Cocklebur [1, 20]: 50
- Plant response rating, Cocklebur [1, 18]: 0
- Plant response rating: Canarygrass [2, 9]: 10
- Plant response rating: Canarygrass [2, 10]: 20
- Plant response rating: Canarygrass [2, 11]: 40
- Plant response rating: Canarygrass [2, 22]: 55
- Plant response rating, Canarygrass [2, 12]: 10
- Plant response rating, Canarygrass [2, 13]: 0
- Plant response rating, Canarygrass [2, 14]: 25
- Plant response rating, Canarygrass [2, 15]: 40
- Plant response rating, Canarygrass [2, 16]: 80
- Plant response rating, Canarygrass [2, 23]: 95
- Plant response rating: Blackgrass [3, 9]: 25
- Plant response rating: Blackgrass [3, 10]: 35
- Plant response rating: Blackgrass [3, 11]: 50
- Plant response rating: Blackgrass [3, 22]: 70
- Plant response rating, Blackgrass [3, 12]: 20
- Plant response rating, Blackgrass [3, 13]: 0
- Plant response rating, Blackgrass [3, 14]: 70
- Plant response rating, Blackgrass [3, 15]: 75
- Plant response rating, Blackgrass [3, 16]: 80
- Plant response rating, Blackgrass [3, 23]: 100
- Plant response rating: Buckwheat, Wild [4, 9]: 20
- Plant response rating: Buckwheat, Wild [4, 10]: 30
- Plant response rating: Buckwheat, Wild [4, 11]: 35
- Plant response rating: Buckwheat, Wild [4, 22]: 65
- Plant response rating, Buckwheat, Wild [4, 12]: 15
- Plant response rating, Buckwheat, Wild [4, 13]: 0
- Plant response rating, Buckwheat, Wild [4, 14]: 0
- Plant response rating, Buckwheat, Wild [4, 15]: 20
- Plant response rating, Buckwheat, Wild [4, 16]: 20
- Plant response rating, Buckwheat, Wild [4, 23]: 40
- Plant response rating: Chamomile [5, 9]: 20
- Plant response rating: Chamomile [5, 10]: 20
- Plant response rating: Chamomile [5, 11]: 20
- Plant response rating: Chamomile [5, 22]: 50
- Plant response rating, Chamomile [5, 12]: 20
- Plant response rating, Chamomile [5, 13]: 0
- Plant response rating, Chamomile [5, 14]: 0
- Plant response rating, Chamomile [5, 15]: 100
- Plant response rating, Chamomile [5, 16]: 100
- Plant response rating, Chamomile [5, 23]: 100
- Plant response rating, Surinam Grass [6, 9]: 30
- Plant response rating, Surinam Grass [6, 10]: 50
- Plant response rating, Surinam Grass [6, 22]: 60
- Plant response rating, Surinam Grass ([6]; Preemergence, 31 g ai/ha, scale 0 (no effect) to 100 (complete control)): 55
- Plant response rating, Surinam Grass [6, 17]: 75
- Plant response rating, Surinam Grass [6, 18]: 85
- Plant response rating, Surinam Grass [6, 19]: 98
- Plant response rating: Oat, Wild [7, 9]: 20
- Plant response rating: Oat, Wild [7, 10]: 25
- Plant response rating: Oat, Wild [7, 11]: 35
- Plant response rating: Oat, Wild [7, 22]: 45
- Plant response rating, Oat, Wild [7, 12]: 10
- Plant response rating, Oat, Wild [7, 13]: 0
- Plant response rating, Oat, Wild [7, 14]: 0
- Plant response rating, Oat, Wild [7, 15]: 0
- Plant response rating, Oat, Wild [7, 16]: 75
- Plant response rating, Oat, Wild [7, 23]: 75
